{
  "source": "ChEMBL document CHEMBL5614376",
  "about": "“Discovery of MT-1207: A Novel, Potent Multitarget Inhibitor as a Promising Clinical Candidate for the Treatment of Hypertension” (J Med Chem, 2024)",
  "key": {"[1]": {"experiment": "Apparent volume of distribution during terminal phase in Sprague-Dawley rat at 9 mg/kg, po measured for 24 hrs by UPLC/MS/MS analysis", "format": "ADME, organism-based", "settings": "in vivo, read-out: Vz/F"}, "[2]": {"experiment": "Plasma protein binding in Cynomolgus monkey at 1 uM incubated for 30 mins", "format": "ADME, cell-free, Macaca fascicularis", "settings": "read-out: PPB (converted)"}, "[3]": {"experiment": "Plasma protein binding in Sprague-Dawley rat at 0.1 uM incubated for 30 mins", "format": "ADME, cell-free", "settings": "read-out: PPB (converted)"}, "Rattus norvegicus [4]": {"test_system": "Rattus norvegicus", "experiment": "Effect on postural hypotension in Sprague-Dawley rat assessed as change in systolic blood pressure at 10 mg/kg, po treated for >30 mins followed by induction of postural hypotension measured 5 secs after postural change (reference value: 126 +/- 12 mmHg)", "format": "functional", "settings": "time > 30.08 min, 0.5013 h"}, "[5]": {"experiment": "AUC (0 to t) in Sprague-Dawley rat at 9 mg/kg, po measured for 24 hrs by UPLC/MS/MS analysis", "format": "ADME, organism-based", "settings": "in vivo"}, "Rattus norvegicus [6]": {"test_system": "Rattus norvegicus", "experiment": "Effect on postural hypotension in Sprague-Dawley rat assessed as change in systolic blood pressure at 2.5 mg/kg, po treated for >30 mins followed by induction of postural hypotension measured 5 secs after postural change (reference value: 126 +/- 12 mmHg)", "format": "functional", "settings": "time > 30.08 min, 0.5013 h"}, "[7]": {"experiment": "Metabolic stability in macaque liver microsomes assessed as compound remaining at 10 umol/L incubated upto 120 mins in presence of NADPH by LC-MS/MS analysis", "format": "ADME, Microsome", "settings": "macaca, dose 10 µmol/L, read-out: Stability"}, "[8]": {"experiment": "Metabolic stability in Beagle dog liver microsomes assessed as drug metabolism at 10 umol/L incubated upto 120 mins in presence of NADPH by LC-MS/MS analysis", "format": "ADME, Canis lupus familiaris, Microsome", "settings": "2 h, 10 µM, dose 10 µmol/L"}, "Rattus norvegicus [9]": {"test_system": "Rattus norvegicus", "experiment": "Effect on postural hypotension in Sprague-Dawley rat assessed as change in systolic blood pressure at 10 mg/kg, po treated for >30 mins followed by induction of postural hypotension measured 20 secs after postural change (reference value: 129 +/- 11 mmHg)", "format": "functional", "settings": "time > 30.33 min, 0.5055 h"}, "[10]": {"experiment": "Tmax in Sprague-Dawley rat at 9 mg/kg, po measured for 24 hrs by UPLC/MS/MS analysis", "format": "ADME, organism-based", "settings": "in vivo"}, "Rattus norvegicus [11]": {"test_system": "Rattus norvegicus", "experiment": "Effect on postural hypotension in Sprague-Dawley rat assessed as change in systolic blood pressure at 5 mg/kg, po treated for >30 mins followed by induction of postural hypotension measured 10 secs after postural change (reference value: 127 +/- 12 mmHg)", "format": "functional", "settings": "time > 30.17 min, 0.5028 h"}, "Rattus norvegicus [12]": {"test_system": "Rattus norvegicus", "experiment": "Effect on postural hypotension in Sprague-Dawley rat assessed as change in systolic blood pressure at 5 mg/kg, po treated for >30 mins followed by induction of postural hypotension measured 40 secs after postural change (reference value: 128 +/- 11 mmHg)", "format": "functional", "settings": "time > 30.67 min, 0.5112 h"}, "Rattus norvegicus [13]": {"test_system": "Rattus norvegicus", "experiment": "Effect on postural hypotension in Sprague-Dawley rat assessed as change in systolic blood pressure at 2.5 mg/kg, po treated for >30 mins followed by induction of postural hypotension measured 3 secs after postural change (reference value: 124 +/- 10 mmHg)", "format": "functional", "settings": "time > 30.05 min, 0.5008 h"}, "Rattus norvegicus [14]": {"test_system": "Rattus norvegicus", "experiment": "Effect on serum K+ level in 2K2C renovascular hypertensive Sprague-Dawley rat model at 10 mg/kg, po measured after 9 weeks by biochemical analysis", "format": "functional, organism-based"}, "[15]": {"experiment": "Toxicity in male Sprague-Dawley rat assessed as reduction in body weight at 30 mg/kg, po qd treated for 11 days consecutively", "format": "organism-based", "set-up": "scale not given: the % may be the effect or the level left", "settings": "in vivo, 264 h, time 11 day"}, "[16]": {"experiment": "Tmax in female Sprague-Dawley rat at 10 mg/kg, po qd treated for 13 weeks consecutively measured after recovery period on day 91 by UP/LC/MS/MS analysis", "format": "ADME, organism-based", "settings": "in vivo, time 91 day"}, "Rattus norvegicus [17]": {"test_system": "Rattus norvegicus", "experiment": "Effect on serum creatinine level in 2K2C renovascular hypertensive Sprague-Dawley rat model at 10 mg/kg, po measured after 9 weeks by biochemical analysis", "format": "functional, organism-based"}, "[18]": {"experiment": "Metabolic stability in macaque plasma assessed as enzymatic hydrolysis at 50 to 10000 ng/ml incubated upto 120 mins", "format": "ADME, cell-free", "settings": "macaca, 2 h, dose 50-10000 ng/ml"}, "[19]": {"experiment": "AUC (0 to t) in male Sprague-Dawley rat at 30 mg/kg, po measured on day 1 by UP/LC/MS/MS analysis", "format": "ADME, organism-based", "settings": "in vivo, time 1 day"}, "[20]": {"experiment": "Plasma protein binding in Cynomolgus monkey at 10 uM incubated for 30 mins", "format": "ADME, cell-free, Macaca fascicularis", "settings": "read-out: PPB (converted)"}, "[21]": {"experiment": "Cmax in Sprague-Dawley rat at 9 mg/kg, po measured for 24 hrs by UPLC/MS/MS analysis", "format": "ADME, organism-based", "settings": "in vivo"}, "Rattus norvegicus [22]": {"test_system": "Rattus norvegicus", "experiment": "Effect on postural hypotension in Sprague-Dawley rat assessed as change in systolic blood pressure at 5 mg/kg, po treated for >30 mins followed by induction of postural hypotension measured 5 secs after postural change (reference value: 126 +/- 12 mmHg)", "format": "functional", "settings": "time > 30.08 min, 0.5013 h"}, "[23]": {"experiment": "Toxicity in Sprague-Dawley rat assessed as drug tolerance at 10 to 100 mg/kg, po qd treated for 13 weeks", "format": "organism-based", "settings": "in vivo, 2184 h, dose 10-100 mg/kg"}, "Rattus norvegicus [24]": {"test_system": "Rattus norvegicus", "experiment": "Effect on heart rate in 2K2C renovascular hypertensive Sprague-Dawley rat model at 10 mg/kg, po measured after 9 weeks", "format": "functional, organism-based"}, "[25]": {"experiment": "Tmax in male Sprague-Dawley rat at 100 mg/kg, po qd treated for 13 weeks consecutively measured after recovery period on day 91 by UP/LC/MS/MS analysis", "format": "ADME, organism-based", "settings": "in vivo, time 91 day"}, "[26]": {"experiment": "Tmax in female Sprague-Dawley rat at 30 mg/kg, po measured on day 1 by UP/LC/MS/MS analysis", "format": "ADME, organism-based", "settings": "in vivo, time 1 day"}, "[27]": {"experiment": "Plasma protein binding in Beagle dog at 0.1 uM incubated for 30 mins", "format": "ADME, cell-free, Canis lupus familiaris", "settings": "read-out: PPB (converted)"}, "[28]": {"experiment": "Metabolic stability in rat liver microsomes assessed as compound remaining at 10 umol/L incubated upto 120 mins in presence of NADPH by LC-MS/MS analysis", "format": "ADME, Microsome", "settings": "dose 10 µmol/L, read-out: Stability"}, "[29]": {"experiment": "Plasma protein binding in human at 0.1 uM incubated for 30 mins", "format": "ADME, cell-free", "settings": "read-out: PPB (converted)"}},
  "note": "Active and inactive are the calls of the source. The rule behind the calls is not given here.",
  "data": [
    {"smiles": "Cl.c1ccc2c(c1)nnn2CCCCN1CCN(c2nsc3ccccc23)CC1", "values": [
      {"measurement": "Vd/F", "setting": "[1]", "result": 78.9, "unit": "L"},
      {"measurement": "fraction unbound at 0.5 h, 1 µM", "setting": "[2]", "result": 0.006},
      {"measurement": "fraction unbound at 0.5 h, 0.1 µM", "setting": "[3]", "result": 0.022},
      {"measurement": "Activity", "setting": "Rattus norvegicus [4]", "result": 81, "unit": "mmHg"},
      {"measurement": "AUC(0-t) at 24 h", "setting": "[5]", "result": 0.605, "unit": "µg·h/mL"},
      {"measurement": "Activity", "setting": "Rattus norvegicus [6]", "result": 89, "unit": "mmHg"},
      {"measurement": "remaining at 2 h, 10 µM", "setting": "[7]", "result": 1.5, "unit": "%"},
      {"measurement": "Drug metabolism", "setting": "[8]", "result": "Metabolite_Detected"},
      {"measurement": "Activity", "setting": "Rattus norvegicus [9]", "result": 85, "unit": "mmHg"},
      {"measurement": "Tmax", "setting": "[10]", "result": 0.65, "unit": "h"},
      {"measurement": "Activity", "setting": "Rattus norvegicus [11]", "result": 82, "unit": "mmHg"},
      {"measurement": "Activity", "setting": "Rattus norvegicus [12]", "result": 83, "unit": "mmHg"},
      {"measurement": "Activity", "setting": "Rattus norvegicus [13]", "result": 90, "unit": "mmHg"},
      {"measurement": "Activity", "setting": "Rattus norvegicus [14]", "result": "Active"},
      {"measurement": "Activity", "setting": "[15]", "result": "~ 3.3%"},
      {"measurement": "Tmax", "setting": "[16]", "result": 1, "unit": "h"},
      {"measurement": "Activity", "setting": "Rattus norvegicus [17]", "result": "Active"},
      {"measurement": "Stability", "setting": "[18]", "result": "Stable"},
      {"measurement": "AUC(0-t) at 24 h", "setting": "[19]", "result": 0.318, "unit": "µg·h/mL"},
      {"measurement": "fraction unbound at 0.5 h, 10 µM", "setting": "[20]", "result": 0.005},
      {"measurement": "Cmax", "setting": "[21]", "result": 0.186, "unit": "µg/mL"},
      {"measurement": "Activity", "setting": "Rattus norvegicus [22]", "result": 79, "unit": "mmHg"},
      {"measurement": "Activity", "setting": "[23]", "result": "Non-Toxic"},
      {"measurement": "Activity", "setting": "Rattus norvegicus [24]", "result": "Active"},
      {"measurement": "Tmax", "setting": "[25]", "result": 1.3, "unit": "h"},
      {"measurement": "Tmax", "setting": "[26]", "result": 1, "unit": "h"},
      {"measurement": "fraction unbound at 0.5 h, 0.1 µM", "setting": "[27]", "result": 0.012},
      {"measurement": "remaining at 2 h, 10 µM", "setting": "[28]", "result": 21.1, "unit": "%"},
      {"measurement": "fraction unbound at 0.5 h, 0.1 µM", "setting": "[29]", "result": 0.003}
    ]}
  ]
}
